For 19 molecules, TGI and GI50 results are on record in PubChem BioAssay (NCI).

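Where inhibition never reached the appropriate level, the endpoint shown equals the highest concentration tested. Otherwise, values were interpolated linearly from a five-concentration, 48-hour dose response in 96-well plates. Here, GI50 denotes the concentration required for 50% inhibition of growth. At the TGI there is no net growth.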

In one assay the test system is SF-539 CNS. Briefly: growth of human tumour cells (NCI), 48 h.
With `c1ccc2c(c1)NC(C1OC3CCCN3C1C1Nc3ccccc3S1)S2` (stereo unspecified), the TGI is more than 100 µM.
Consider `COc1nc(C#CCC(C)O)nc(OC)n1` (stereo unspecified), for which the TGI was 59.2 µM.
On the same count and under the same terms, as for `O=C1C[C@H](Sc2ccccc2)C2(OCCO2)[C@@H](Sc2ccccc2)C1`, the figure is 4.05 µM; as for `CCCNC(=O)CCC(C)[C@H]1CCC2C3C(C[C@H](OC(C)=O)[C@@]21C)[C@@]1(C)CCC2(C[C@H]1C[C@H]3OC(C)=O)OOC1(CCC(C)CC1)OO2` (stereo partly specified), 33.8 µM.
Same read-out and setting: as for `CCCn1c(CN(Cc2nc3ccccc3n2CCC)Cc2nc3ccccc3n2CCC)nc2ccccc21`, the figure is more than 50.9 µM; as for `Cc1c(S(=O)(=O)/N=C(\N)Nc2ccc(Cl)cc2)sc2ccc(Cl)cc12`, more than 100 µM; as for `CC12CC(=O)C3C(C(=O)C1)C32C` (stereo unspecified), more than 100 µM.
The molecule `O=C1CN2C(c3ccccc3)=NN(c3ccc([N+](=O)[O-])cc3)C2(c2ccccc2)c2cc(Cl)ccc2N1CC1CC1` (stereo unspecified) showed a TGI of more than 100 µM.
`COc1ccc2nc3cc(Cl)ccc3c(NCCCNCCCNc3c4ccc(Cl)cc4nc4ccc(OC)cc34)c2c1` had a TGI of 0.192 µM.
`COc1cc2c(cc1-c1c(C)noc1C)cc(C)c(=O)n2Cc1ccccn1`: the GI50 is 0.983 µM and the TGI was 13.2 µM.
`N#CC(C#N)=CNC(=S)c1ccncc1` had a TGI of 68.4 µM.
For `CCOC(=O)c1c(-c2ccc(OC)cc2)c(C#N)c(=S)n(C2OC(COC(C)=O)C(OC(C)=O)C(OC(C)=O)C2OC(C)=O)c1C` (stereo unspecified), the TGI is more than 100 µM.
For `O=c1cc(N=P(c2ccccc2)(c2ccccc2)c2ccccc2)n(-c2ccccc2)c(=O)n1-c1ccccc1`, the TGI was found to be 17.7 µM.
Same read-out and setting: in the case of `COc1ccc(C2(CC(C)O)SCCCS2)cc1` (stereo unspecified) it was more than 100 µM; in that of `Cc1ccccc1C(O)(c1nccn1C)c1nccn1C`, more than 100 µM.
Consider `C=CCn1c(=O)ccn(COCCO)c1=O`, for which the TGI was more than 100 µM.
Molecule `Oc1ccccc1/C=N/c1nc2cc3sc(/N=C/c4ccccc4O)nc3cc2s1` yielded a TGI of more than 100 µM.
On to `CCCCC1c2c([nH]c3ccccc23)C2C(=O)N(c3ccc(OC)cc3)C(=O)C2C1CCC` (stereo unspecified), for which the TGI is 5.11 µM.
The same measure, in the same setting: as for `CCOC(=N)n1c(=O)n(C2=NCCN2)c2ccccc21`, the figure is more than 100 µM.

Another assay deals with A498 renal. Briefly: growth of human tumour cells (NCI), 48 h.
Molecule `c1ccc2c(c1)NC(C1OC3CCCN3C1C1Nc3ccccc3S1)S2` (stereo unspecified) came in with a TGI of more than 100 µM.
On the same count and under the same terms, in the case of `COc1nc(C#CCC(C)O)nc(OC)n1` (stereo unspecified) it was 77.1 µM; in that of `O=C1C[C@H](Sc2ccccc2)C2(OCCO2)[C@@H](Sc2ccccc2)C1`, more than 66.7 µM; in that of `CCCNC(=O)CCC(C)[C@H]1CCC2C3C(C[C@H](OC(C)=O)[C@@]21C)[C@@]1(C)CCC2(C[C@H]1C[C@H]3OC(C)=O)OOC1(CCC(C)CC1)OO2` (stereo partly specified), 74.5 µM.
Still for that read-out and setting: in the case of `CCCn1c(CN(Cc2nc3ccccc3n2CCC)Cc2nc3ccccc3n2CCC)nc2ccccc21` it was more than 64.1 µM; in that of `Cc1c(S(=O)(=O)/N=C(\N)Nc2ccc(Cl)cc2)sc2ccc(Cl)cc12`, 30.1 µM; in that of `CC12CC(=O)C3C(C(=O)C1)C32C` (stereo unspecified), more than 100 µM.
`O=C1CN2C(c3ccccc3)=NN(c3ccc([N+](=O)[O-])cc3)C2(c2ccccc2)c2cc(Cl)ccc2N1CC1CC1` (stereo unspecified): the TGI is more than 100 µM.
As to `COc1ccc2nc3cc(Cl)ccc3c(NCCCNCCCNc3c4ccc(Cl)cc4nc4ccc(OC)cc34)c2c1`, the TGI amounted to 0.463 µM.
For the molecule `COc1cc2c(cc1-c1c(C)noc1C)cc(C)c(=O)n2Cc1ccccn1`, the GI50 is 0.864 µM and the TGI came out at 5.12 µM.
As to `N#CC(C#N)=CNC(=S)c1ccncc1`, the TGI was more than 100 µM.
As for `CCOC(=O)c1c(-c2ccc(OC)cc2)c(C#N)c(=S)n(C2OC(COC(C)=O)C(OC(C)=O)C(OC(C)=O)C2OC(C)=O)c1C` (stereo unspecified), the TGI is more than 100 µM.
Same read-out and setting: as for `O=c1cc(N=P(c2ccccc2)(c2ccccc2)c2ccccc2)n(-c2ccccc2)c(=O)n1-c1ccccc1`, the figure is 21.1 µM; as for `COc1ccc(C2(CC(C)O)SCCCS2)cc1` (stereo unspecified), more than 100 µM.
Still for that read-out and setting: in the case of `Cc1ccccc1C(O)(c1nccn1C)c1nccn1C` it was more than 100 µM.
On the same count and under the same terms, as for `C=CCn1c(=O)ccn(COCCO)c1=O`, the figure is more than 100 µM; as for `Oc1ccccc1/C=N/c1nc2cc3sc(/N=C/c4ccccc4O)nc3cc2s1`, more than 100 µM.
`CCCCC1c2c([nH]c3ccccc23)C2C(=O)N(c3ccc(OC)cc3)C(=O)C2C1CCC` (stereo unspecified) yielded a TGI of 6.71 µM.
The molecule `CCOC(=N)n1c(=O)n(C2=NCCN2)c2ccccc21` gave a TGI of more than 100 µM.

The next assay has as its system SNB-75 CNS. Description: growth of human tumour cells (NCI), 48 h.
The molecule `c1ccc2c(c1)NC(C1OC3CCCN3C1C1Nc3ccccc3S1)S2` (stereo unspecified) came in with a TGI of more than 100 µM.
`COc1nc(C#CCC(C)O)nc(OC)n1` (stereo unspecified) returned a TGI of 64 µM.
On the same count and under the same terms, as for `O=C1C[C@H](Sc2ccccc2)C2(OCCO2)[C@@H](Sc2ccccc2)C1`, the figure is 26 µM; as for `CCCNC(=O)CCC(C)[C@H]1CCC2C3C(C[C@H](OC(C)=O)[C@@]21C)[C@@]1(C)CCC2(C[C@H]1C[C@H]3OC(C)=O)OOC1(CCC(C)CC1)OO2` (stereo partly specified), 53.5 µM.
On the same count and under the same terms, as for `CCCn1c(CN(Cc2nc3ccccc3n2CCC)Cc2nc3ccccc3n2CCC)nc2ccccc21`, the figure is 75.1 µM; as for `Cc1c(S(=O)(=O)/N=C(\N)Nc2ccc(Cl)cc2)sc2ccc(Cl)cc12`, 43.5 µM.
Still for that read-out and setting: as for `CC12CC(=O)C3C(C(=O)C1)C32C` (stereo unspecified), the figure is more than 100 µM; as for `O=C1CN2C(c3ccccc3)=NN(c3ccc([N+](=O)[O-])cc3)C2(c2ccccc2)c2cc(Cl)ccc2N1CC1CC1` (stereo unspecified), more than 100 µM; as for `COc1ccc2nc3cc(Cl)ccc3c(NCCCNCCCNc3c4ccc(Cl)cc4nc4ccc(OC)cc34)c2c1`, 0.23 µM.
For `COc1cc2c(cc1-c1c(C)noc1C)cc(C)c(=O)n2Cc1ccccn1`, the GI50 was 0.0306 µM and the TGI amounted to 0.456 µM.
Turning to `N#CC(C#N)=CNC(=S)c1ccncc1`, the TGI is more than 100 µM.
Same read-out and setting: as for `CCOC(=O)c1c(-c2ccc(OC)cc2)c(C#N)c(=S)n(C2OC(COC(C)=O)C(OC(C)=O)C(OC(C)=O)C2OC(C)=O)c1C` (stereo unspecified), the figure is 91 µM; as for `O=c1cc(N=P(c2ccccc2)(c2ccccc2)c2ccccc2)n(-c2ccccc2)c(=O)n1-c1ccccc1`, 39.9 µM.
In turn, `COc1ccc(C2(CC(C)O)SCCCS2)cc1` (stereo unspecified) registered a TGI of more than 100 µM.
For `Cc1ccccc1C(O)(c1nccn1C)c1nccn1C`, the TGI is more than 100 µM.
Still for that read-out and setting: as for `C=CCn1c(=O)ccn(COCCO)c1=O`, the figure is more than 100 µM; as for `Oc1ccccc1/C=N/c1nc2cc3sc(/N=C/c4ccccc4O)nc3cc2s1`, more than 100 µM.
Molecule `CCCCC1c2c([nH]c3ccccc23)C2C(=O)N(c3ccc(OC)cc3)C(=O)C2C1CCC` (stereo unspecified) came in with a TGI of 6.5 µM.
Still for that read-out and setting: as for `CCOC(=N)n1c(=O)n(C2=NCCN2)c2ccccc21`, the figure is more than 100 µM.

The next assay concerns SR leukemia. Briefly: growth of human tumour cells (NCI), 48 h.
With `c1ccc2c(c1)NC(C1OC3CCCN3C1C1Nc3ccccc3S1)S2` (stereo unspecified), the TGI was more than 100 µM.
For `COc1nc(C#CCC(C)O)nc(OC)n1` (stereo unspecified), the TGI was more than 100 µM.
`O=C1C[C@H](Sc2ccccc2)C2(OCCO2)[C@@H](Sc2ccccc2)C1` showed a TGI of 1.22 µM.
Take `CCCNC(=O)CCC(C)[C@H]1CCC2C3C(C[C@H](OC(C)=O)[C@@]21C)[C@@]1(C)CCC2(C[C@H]1C[C@H]3OC(C)=O)OOC1(CCC(C)CC1)OO2` (stereo partly specified): the TGI was 36.5 µM.
The same measure, in the same setting: as for `CCCn1c(CN(Cc2nc3ccccc3n2CCC)Cc2nc3ccccc3n2CCC)nc2ccccc21`, the figure is 11.8 µM; as for `Cc1c(S(=O)(=O)/N=C(\N)Nc2ccc(Cl)cc2)sc2ccc(Cl)cc12`, more than 100 µM; as for `CC12CC(=O)C3C(C(=O)C1)C32C` (stereo unspecified), more than 100 µM.
On the same count and under the same terms, as for `O=C1CN2C(c3ccccc3)=NN(c3ccc([N+](=O)[O-])cc3)C2(c2ccccc2)c2cc(Cl)ccc2N1CC1CC1` (stereo unspecified), the figure is more than 100 µM; as for `COc1ccc2nc3cc(Cl)ccc3c(NCCCNCCCNc3c4ccc(Cl)cc4nc4ccc(OC)cc34)c2c1`, 2.73 µM.
For `COc1cc2c(cc1-c1c(C)noc1C)cc(C)c(=O)n2Cc1ccccn1`, the GI50 was 0.709 µM and the TGI was more than 100 µM.
`N#CC(C#N)=CNC(=S)c1ccncc1`: the TGI was more than 100 µM.
Consider `CCOC(=O)c1c(-c2ccc(OC)cc2)c(C#N)c(=S)n(C2OC(COC(C)=O)C(OC(C)=O)C(OC(C)=O)C2OC(C)=O)c1C` (stereo unspecified), for which the TGI was more than 100 µM.
Still for that read-out and setting: in the case of `O=c1cc(N=P(c2ccccc2)(c2ccccc2)c2ccccc2)n(-c2ccccc2)c(=O)n1-c1ccccc1` it was 24.6 µM.
Still for that read-out and setting: as for `COc1ccc(C2(CC(C)O)SCCCS2)cc1` (stereo unspecified), the figure is more than 100 µM.
Consider `Cc1ccccc1C(O)(c1nccn1C)c1nccn1C`, for which the TGI was more than 100 µM.
As for `C=CCn1c(=O)ccn(COCCO)c1=O`, the TGI is more than 100 µM.
On the same count and under the same terms, in the case of `Oc1ccccc1/C=N/c1nc2cc3sc(/N=C/c4ccccc4O)nc3cc2s1` it was more than 42.1 µM; in that of `CCCCC1c2c([nH]c3ccccc23)C2C(=O)N(c3ccc(OC)cc3)C(=O)C2C1CCC` (stereo unspecified), 8.22 µM.
`CCOC(=N)n1c(=O)n(C2=NCCN2)c2ccccc21` yielded a TGI of more than 100 µM.

For the next assay, the system named is PC-3 prostate. Description: growth of human tumour cells (NCI), 48 h.
The molecule `c1ccc2c(c1)NC(C1OC3CCCN3C1C1Nc3ccccc3S1)S2` (stereo unspecified) yielded a TGI of more than 100 µM.
On the same count and under the same terms, in the case of `COc1nc(C#CCC(C)O)nc(OC)n1` (stereo unspecified) it was 54.6 µM; in that of `O=C1C[C@H](Sc2ccccc2)C2(OCCO2)[C@@H](Sc2ccccc2)C1`, 13.8 µM.
The same measure, in the same setting: as for `CCCNC(=O)CCC(C)[C@H]1CCC2C3C(C[C@H](OC(C)=O)[C@@]21C)[C@@]1(C)CCC2(C[C@H]1C[C@H]3OC(C)=O)OOC1(CCC(C)CC1)OO2` (stereo partly specified), the figure is more than 100 µM.
`CCCn1c(CN(Cc2nc3ccccc3n2CCC)Cc2nc3ccccc3n2CCC)nc2ccccc21` registered a TGI of 18.9 µM.
The same measure, in the same setting: as for `Cc1c(S(=O)(=O)/N=C(\N)Nc2ccc(Cl)cc2)sc2ccc(Cl)cc12`, the figure is 28.2 µM; as for `CC12CC(=O)C3C(C(=O)C1)C32C` (stereo unspecified), more than 100 µM.
Still for that read-out and setting: as for `O=C1CN2C(c3ccccc3)=NN(c3ccc([N+](=O)[O-])cc3)C2(c2ccccc2)c2cc(Cl)ccc2N1CC1CC1` (stereo unspecified), the figure is more than 100 µM; as for `COc1ccc2nc3cc(Cl)ccc3c(NCCCNCCCNc3c4ccc(Cl)cc4nc4ccc(OC)cc34)c2c1`, 0.182 µM.
As to `COc1cc2c(cc1-c1c(C)noc1C)cc(C)c(=O)n2Cc1ccccn1`, the GI50 is 3.47 µM and the TGI was more than 100 µM.
The molecule `N#CC(C#N)=CNC(=S)c1ccncc1` gave a TGI of more than 100 µM.
With `CCOC(=O)c1c(-c2ccc(OC)cc2)c(C#N)c(=S)n(C2OC(COC(C)=O)C(OC(C)=O)C(OC(C)=O)C2OC(C)=O)c1C` (stereo unspecified), the TGI is more than 100 µM.
`O=c1cc(N=P(c2ccccc2)(c2ccccc2)c2ccccc2)n(-c2ccccc2)c(=O)n1-c1ccccc1` displayed a TGI of 18.6 µM.
In turn, `COc1ccc(C2(CC(C)O)SCCCS2)cc1` (stereo unspecified) showed a TGI of more than 100 µM.
On to `Cc1ccccc1C(O)(c1nccn1C)c1nccn1C`, for which the TGI was more than 100 µM.
